Test system: U937 tumor cells
Assay: In vitro antitumoral assay: inhibition of 3H-thymidine incorporation by U937 tumor cells, macrophage/U937 ratio 1/1
Assay type: cell-based, human
Settings: mean and standard error of 8 preparations
Description: The “cytotoxic activity” corresponds to the one measured as the percentage of inhibition of 3-H thymidine incorporation by target tumoral cells, particularly U937 cells, and a test for this measure is hereafter given:
Differentiated macrophages were seeded into 96-well flat microtiter plates at 10^4 macrophages/well in 0.2 ml. After 2 h incubation at 37° C. in 5% CO2 humidified atmosphere, the medium was removed and replaced by IMDM+5% hu AB serum containing or not 250 U/ml of rhu IFNγ; plates were further incubated overnight. After washing, 10^4 U937 tumor cells in 0.2 ml fresh medium (IMDM+10% FCS) were added to each well. After 24 h contact, 0.1 μCi of tritiated thymidine was added to each well for a further 24 h incubation.
The cells were collected and the determination of incorporated radioactivity on the fiber glass filters was carried out by β counting. The percentage inhibition of thymidine incorporation by tumor cells could be calculated according to the formula: [formula]
The cytotoxic activity is determined with U937 cells, the ratio between macrophages and U937 being of 1/1. […]
The cells were collected and the determination of incorporated radioactivity on the fiber glass filters was carried out by β counting. The % inhibition of thymidine incorporation by tumor cells was calculated according the formula: [formula]

+GM-CSF
cytotoxic activity +IFN-γ: % inhibition of 3H-thymidine incorporation by U937 cells (after activation with 250 U/ml IFN-γ): 76 +/− 5% | cytotoxic activity −IFN-γ: % inhibition of 3H-thymidine incorporation by U937 cells (without IFN-γ activation (spontaneous)): 44 +/− 5%
